The values that follow come from patent US12263248B2, “Compounds and compositions for intracellular delivery of therapeutic agents” (ModernaTX, Inc., priority 2018, dated 2025).

A short description of series [1]: Particle size and polydispersity index of nanoparticle compositions (Zetasizer Nano ZS). As to conditions: for PDI (Polydispersity index): lipid nanoparticle, ±SD within one assay run (Table 37). The series is classed as physicochemical. A digest of the protocol: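 Particle size and PDI were measured on a Zetasizer Nano ZS with the nanoparticle compositions dispersed in 1×PBS.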

Series [2] relates to luciferase (Luc) mRNA. The experiment in a line: Luc expression (total flux) after intramuscular administration. Type of series: in vivo, mice. To be noted: for Total flux, 0.001 mpk Dose / Total flux, 0.01 mpk Dose: Luc mRNA and H10 mRNA. A digest of the protocol: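 Mice given a single intramuscular dose of lipid nanoparticle formulations carrying modified Luc mRNA, alone or with H10 mRNA, at 0.001 or 0.01 mpk total. Luciferase expression recorded as total flux.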

Series [3] is described as follows: Apparent (surface) pKa of the LNP formulation (TNS assay). Type of series: physicochemical. A digest of the protocol:
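LNP (0.04 mg/mL mRNA) mixed with TNS reagent in 21 buffers spanning about pH 3-12, in triplicate; fluorescence plotted against pH as sigmoidal curve. Apparent pKa taken as […] curve inflection point; validated in 1× PBS and 20 mM Tris w/8% sucrose.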

For series [4], the system named is luciferase (Luc) mRNA. The experiment in a line: Luc expression in liver, lung, spleen and femur 6 hours after intravenous administration. The series is classed as in vivo. As to conditions: mice, intravenous, 0.5 mpk. A digest of the protocol: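 LNP-formulated mRNA given IV to mice (n=3) at 0.5 mpk; at 6 h, bioluminescence imaged ex vivo 15 min after IP D-luciferin (15 mg/mL, 200 μL), organs imaged within 25 min. Values are total flux by region of interest.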

Series [5] has as its system IL-6, IP-10. The experiment in a line: Cytokine induction in mice upon intravenous administration. Set-up: Cytokine induction IL-6 / Cytokine induction IP-10: unit not given here. As to conditions: 0.5 mpk, 6 hours; for Cytokine induction IL-6 / Cytokine induction IP-10: intravenous. The series is classed as in vivo. A digest of the protocol:
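Mice dosed intravenously with nanoparticle compositions at 0.5 mpk; serum cytokine concentrations (IL-6, IP-10) measured at 6 hours. MC3 formulation and PBS controls run alongside.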

[6] abbreviates: Table 1A, lipid:DSPC:cholesterol:PEG-DMG 50:10:38.5:1.5 mol %.
Setting [7] is: Table 1B, formulated with hEPO mRNA.
The mark [8] stands for this setting: Table 1C, compositions for subcutaneous administration.
Where [9] appears, read: Table 1D, for subcutaneous administration, # formulated with hEPO mRNA.
Where [10] appears, read: Table 1E, compositions for subcutaneous administration.
Where [11] appears, read: nanoparticle composition with hEPO mRNA (Table 30).
[12] abbreviates: 6 hours after intramuscular administration, 0.001 mpk.
Where [13] appears, read: 6 hours after intramuscular administration, 0.01 mpk.
[14] abbreviates: lipid nanoparticle, ±SD within one assay run (Table 37).

One may read the pKa as the negative logarithm of the acid dissociation constant. For `CCCCC/C=C\C/C=C\CCCCCCCCC(CCCCCCCC/C=C\C/C=C\CCCCC)OC(=O)CCCN(C)C` [MC3, DLin-MC3-DMA, reference compound], the PDI was determined as 0.11 in series [1] (Table 1A); 0.12 in series [1] (setting [7]); 0.09 in series [1] (setting [8]); 0.15 in series [1] (setting [9]); 0.10 in series [1] (setting [10]); 0.114 in series [1] (lipid:DSPC:Chol:PEG-DMG (50:10:38.5:1.5), hEPO mRNA). In series [1] (setting [11]), this compound registered a PDI of 0.220. In addition, the “Size (nm)” value in series [1] (setting [6]) stood at 79.7 nm; in series [1] (setting [7]), 57.7 nm; in series [1] (setting [8]), 56.9 nm; in series [1] (setting [9]), 69.1 nm; in series [1] (setting [10]) it was 62.4 nm. Further, the “PDI (Polydispersity index)” value in series [1] was 0.11 ± 0.04. Moreover, in series [2] (setting [12]), the “Total flux, 0.001 mpk Dose” value worked out at 2.76E+06 p/s. Further, in series [2] (setting [13]), the “Total flux, 0.01 mpk Dose” value was 3.68E+07 p/s. Further, the “AUC (p/s * h)” value in series [2] (Table 3H, intramuscular, Luc) came to 5.88E+08 p/s * h. For the same compound, the “Lipid/MC3 AUC” value in series [2] (Table 3H, intramuscular, Luc) is 1. The “Total flux (p/s) 0.01 mpk Dose” value in series [2] (Table 5B, 6 hours after intramuscular administration, 0.01 mpk) stood at 3.23E+07 p/s. In addition, in series [3] (setting [7]), the “Apparent pKa” value was found to be 6.35. For the same compound, the pKa in series [3] (setting [14]) was found to be 6.30 ± 0.03. The “Total Flux Femur” value in series [4] is given as 2.56E+06. For the same compound, the “Total Flux Liver” value in series [4] worked out at 2.57E+09. Moreover, in series [4], the “Total Flux Lung” value is listed as 1.27E+07. Moreover, in series [4], the “Total Flux Spleen” value amounted to 2.85E+07. Besides, the “Cytokine induction IL-6” value in series [5] is on record as 124.42. Further, in series [5], the “Cytokine induction IP-10” value amounted to 504.90.

On to `CCCCCCCCCOC(=O)CCCN(CCO)CCCCCCCC(=O)OC(CCCCCCCC)CCCCCCCC` [Compound 26, Heptadecan-9-yl 8-((2-hydroxyethyl)(4-(nonyloxy)-4-oxobutyl)amino) octanoate], for which the PDI in series [1] (Table 1A) amounted to 0.16. The “Size (nm)” value in series [1] (setting [6]) amounted to 91.9 nm. In addition, the “PDI (Polydispersity index)” value in series [1] is listed as 0.16 ± 0.03. Also, the PDI in series [1] (setting [11]) was 0.120. Besides, in series [2] (setting [12]), the “Total flux, 0.001 mpk Dose” value turned out to be 3.90E+06 p/s. The “Total flux, 0.01 mpk Dose” value in series [2] (setting [13]) amounted to 6.13E+07 p/s. Moreover, the “Fold increase in Luc expression relative to MC3, Intramuscular (0.001 mpk dose)” value in series [2] (intramuscular, 0.001 mpk) was determined as 0.56. Also, the “Fold increase in Luc expression relative to MC3, Intramuscular (0.01 mpk dose)” value in series [2] (intramuscular, 0.01 mpk) was 1.39. Moreover, the pKa in series [3] (Table 1A) is recorded as 6.64. The pKa in series [3] (Table 6) is 6.64. The pKa in series [3] (setting [14]) is on record as 6.64 ± 0.14. Also, in series [4], the “Total Flux Femur” value was 4.67E+06, the “Total Flux Liver” value is 2.90E+09, the “Total Flux Lung” value is reported as 1.18E+07 and the “Total Flux Spleen” value is 1.56E+07. Moreover, in series [5] (i.v., in words), the IL-6 induction entry was “highest” and the IP-10 induction entry is on record as “highest”. Moreover, in series [5], the “Cytokine induction IL-6” value is listed as 273.56 and the “Cytokine induction IP-10” value is recorded as 2330.01.
